Reference: a melting point compilation (Tetko et al.; mined from patent text by program, amines drawn as free bases though some values may be those of a salt)

First: CO[C@@H]1CNCC[C@H]1NC(=O)c1cccc(C(F)(F)F)c1 (relative stereo)
Second: CCN1CCCC1CNC(=O)c1cccc(NC(=O)N2CCc3cc(SC)c(C(F)(F)F)cc32)c1 (stereo unspecified)
The melting point of the first is lower: 100 °C for the first, 174 to 175 °C for the second.

First: CC(C)(C)c1ccc2c(c1)C(COCc1ccccc1)([Si](C)(C)C)c1cc(C(C)(C)C)ccc1-2
Second: COc1ccccc1-c1c(NC(=O)OCc2ccccc2)oc(=O)c2ccccc12
The melting point of the first is lower: 100 to 102 °C for the first, 144 to 146 °C for the second.

First: CCOC(=O)c1ccc(NC(=O)C=C(c2ccc(Cl)cc2)c2ccc(Cl)cc2)cc1
Second: CCOC(=O)Cc1ccc(NC(=O)C(CCO)NS(=O)(=O)c2ccc(Cl)cc2)cc1 (racemic)
The melting point of the first is higher: 207 to 209 °C for the first, 164 to 167 °C for the second.

Compared with COc1cc(F)cc(-c2nn(Cc3oc4ccccc4c(=O)c3-c3cccc(F)c3)c3ncnc(N)c23)c1, CCOc1cccc2oc(-c3ccccc3)cc(=O)c12 is lower in melting point: 115 to 117 °C for the first, 111 to 113 °C for the second.

First: Cc1ccc(-c2cc(NCCN(C)C)c3ccccc3n2)s1
Second: COC(=O)c1nc2ccc(Cl)cc2n1Cc1ccccc1
The melting point of the first is lower: 103 to 105 °C for the first, 184 to 186 °C for the second.

First: CON=C(c1ccccc1)c1ccc2c(c1)C(C)(C)CCN2CCOc1ccc(CC(OC(C)=O)C(=O)O)cc1 (stereo unspecified)
Second: COc1ccc(C(=NOCC(=O)O)c2ccc(OC)cc2)cc1
The melting point of the first is lower: 64 to 66 °C for the first, 105 to 107 °C for the second.

Compared with Cc1ccc(Sc2c(Sc3ccc(C)cc3)c(Sc3ccc(C)cc3)c(C(O)=NCCO)c(C(=O)O)c2Sc2ccc(C)cc2)cc1, CC1(C)CCC(C)(C)c2nc3c(ccc4c(-c5ccc(C(=O)O)cc5)cn(Cc5cccnc5)c43)nc21 is higher in melting point: 161 to 162 °C for the first, 286 to 288 °C for the second.

Compared with Cc1cc(Cl)ccc1OCC(=O)N1CCSC1C(=O)O (stereo unspecified), COc1ccc(C(=O)N2CC(O)CC2C(=O)O)cc1 (stereo unspecified) is higher in melting point: 147 to 148 °C for the first, 192 °C for the second.

First: CN(C(=O)CCNC#N)c1nnc(-c2cccnc2)s1
Second: CSc1nc(-c2cccnc2)n(-c2ccc(F)cc2)c(=O)c1C#N
The melting point of the first is lower: 155 to 159 °C for the first, 190 to 193 °C for the second.

Compared with CC(=O)C1(C)CCc2c(C)c(O)c(C)c(C)c2O1 (stereo unspecified), Cc1cc(C(C)(C)C)c(O)c2c1C1CCCCC1C2=O (stereo unspecified) is lower in melting point: 97 to 98 °C for the first, 77 to 78 °C for the second.

Compared with CCOC(=O)CCCCCCCn1c(C)nc(-c2ccccc2)c1-c1ccccc1, CCCCCCCC(=O)Oc1ccc(-c2nc(-c3ccc(N(C)C)cc3)c(C)[nH]2)cc1OC is lower in melting point: 135 to 136 °C for the first, 126 to 129 °C for the second.

First: CCOC(=O)c1cn(-c2nc(NCc3ccc(OC)cc3)c(Cl)cc2F)c2c(Cl)c(F)c(F)cc2c1=O
Second: CCOC(=O)c1c(S(=O)(=O)Cc2nccn2C)nc2cc(OC)c(OC)cc2c1-c1ccc(OC)c(OC)c1
The melting point of the first is higher: 168 to 171 °C for the first, 132 to 133 °C for the second.

First: O=C(Nc1ccncc1)c1n[nH]c2ccc(-c3cncc4ccccc34)cc12
Second: Cc1sc2c(c1C)C(c1ccc(Cl)cc1)=NC(CC(=O)Nc1ccncc1)c1nnc(C)n1-2 (stereo unspecified)
The melting point of the first is higher: > 250 °C for the first, 237 to 239 °C for the second.

Compared with O=C1c2cccc3cc(OCCO)cc(c23)C(=O)N1O, O=C1CCC(N2Cc3c(O)cccc3C2=O)C(=O)N1 (stereo unspecified) is higher in melting point: 242 to 244 °C for the first, 296 °C for the second.

First: CC(=O)C=C(C)Nc1ccccc1C#N
Second: Cc1ccccc1NC(=O)C1Sc2ccccc2N(C)C1=O (stereo unspecified)
The melting point of the first is lower: 100 °C for the first, 187 to 188 °C for the second.

First: Cc1nnc(SCc2nc(NCCCOc3cccc(CN4CCCCC4)c3)n(C)n2)s1
Second: COc1ccc2c(c1)C(=NOCCN1CCCC1)c1c-2c(N2CCNCC2)nc2ccccc12
The melting point of the first is lower: 63 °C for the first, 126 to 128 °C for the second.

Compared with CCN(CC)C(=O)c1cc(C(C)(C)C)c(OC(=O)c2cc(C(C)(C)C)c(O)c(C(C)(C)C)c2)c(C(C)(C)C)c1, CC(C)Cn1c(CNC(=O)OC(C)(C)C)c(-c2ccc(F)cc2)c2cc(/C=C/C(=O)O)ccc2c1=O is lower in melting point: 203 to 205 °C for the first, 201 to 202 °C for the second.

Compared with CN1N=C(c2ccccc2)CC1=O, CN1C(=O)CN(N=Cc2ccccc2)C1=O is higher in melting point: 211 °C for the first, 253 to 255 °C for the second.

First: CC(C)NC(=O)N1CCc2[nH]cnc2C1C1CCCCC1 (stereo unspecified)
Second: N#CC(C(=O)NC1CCCCC1)=C1Nc2ccccc2O1
The melting point of the first is higher: 254 °C for the first, 185 to 187 °C for the second.

First: COc1cc(CSc2ccc(O)cc2)cc(OC)c1O
Second: COc1ccc2c(O)cc(=O)oc2c1C
The melting point of the first is lower: 128 °C for the first, 195 to 197 °C for the second.

First: O=C(OCCOc1ccc2ncnn2n1)N1CCN(C(c2ccccc2)c2ccccc2)CC1
Second: COc1nccnc1OCC(O)CN1CCC(N2CCN(c3ccccc3)C2=O)CC1 (stereo unspecified)
The melting point of the first is higher: 157 to 159 °C for the first, 128 to 129 °C for the second.

First: CN(O)CCCCc1ccc2c(c1)C(=O)c1sccc1CO2
Second: COC(=O)c1ccc2c(c1)C(SCCO)c1ccccc1CO2 (stereo unspecified)
The melting point of the first is lower: 107 to 108 °C for the first, 128 to 130 °C for the second.

First: CC(C)(C)OC(=O)N1Cc2c(Br)sc(-c3ccccc3)c2C1
Second: COC(=O)c1ccc(CCc2nc(-c3ccccc3)oc2C)cc1
The melting point of the first is higher: 139 to 140 °C for the first, 59 to 60 °C for the second.

Cc1c(SCCCSc2ncccn2)ccnc1CNc1cnc2ccccc2c1 and CCN(CC)CCSC1=C(C#N)C(c2ccccc2)(c2cccnc2)C(=O)N1 (stereo unspecified) cannot be ordered by melting point: 132 to 133 °C for the first, 133 °C for the second.

First: O=Cc1c(OCc2ccccc2)cccc1C1OCCCO1
Second: O=C(O)[C@H]1C[C@H](CCc2ccccc2)Oc2ccc(F)cc21 (relative stereo)
The melting point of the first is lower: 85 to 87 °C for the first, 105 to 108 °C for the second.

Compared with CCCSc1sc(C(=O)OCC)c2c1C(=O)C(Br)CC2 (stereo unspecified), CCCCNC(=O)CNC(=O)CN1CCCC1=O is higher in melting point: 93 to 94 °C for the first, 105 to 106 °C for the second.

Compared with CCOC(=O)/C=C/C=C/c1ccc(OCc2nc(-c3ccccc3)oc2C)cc1, C=CC(=O)Oc1ccc(-c2cccc(-c3ccc(OC(=O)C=C)cc3)c2)cc1 is lower in melting point: 137 to 138 °C for the first, 106 °C for the second.

First: O=C(O)c1c2c(nc3ccc(Br)cc13)-c1ccc(-c3ccccc3F)cc1CCC2
Second: Cc1cccc(-c2[nH]c(C(C)C)nc2-c2cccc(-c3ccc4c(c3)CCS4(=O)=O)c2)n1
The melting point of the first is higher: > 300 °C for the first, 128 to 131 °C for the second.

First: CC(=O)OCCn1cc(C2=C(c3cn(C)c4ccccc34)C(=O)OC2=O)c2ccccc21
Second: O=C1C=CC(=C(c2ccccc2)c2ccccc2)O1
The melting point of the first is higher: 198 to 199 °C for the first, 110 to 112 °C for the second.

Compared with CN(C(=O)OC(C)(C)C)c1cc(Oc2ccc(-c3nnn[nH]3)cc2)ccc1[N+](=O)[O-], CN(C)C(=O)Nc1ccc(Oc2ccc(Cl)nn2)cc1 is higher in melting point: 81 to 84 °C for the first, 173 to 174 °C for the second.

First: O=C(CCN1CCN(c2cccc(C(F)(F)F)c2)CC1)Nc1ccccc1[N+](=O)[O-]
Second: CCOC(=O)c1cccc(NC(=O)N2CCn3c(c(C(N)=O)c(Cl)c3-c3ccccc3)C2)c1
The melting point of the first is higher: 185 to 188 °C for the first, 126 to 128 °C for the second.

First: O=C(O)CCCOc1cc(C(F)(F)F)cc(C(F)(F)F)c1
Second: CCN(CC)C(=O)c1nc(-c2c(Cl)cc(C(F)(F)F)cc2Cl)[nH]c1C#N
The melting point of the first is lower: 85 to 87 °C for the first, 195 to 197 °C for the second.

First: Cc1cc(-c2cnn3c(C(F)(F)F)cc(-c4ccc(Br)cc4)nc23)ccn1
Second: CS(=O)(=O)c1ccc(-c2ccccc2-c2ccc(C(F)(F)F)cc2)cc1
The melting point of the first is higher: 226 °C for the first, 173 to 174 °C for the second.

First: CSc1[nH]nc(-c2ccc(Cl)cc2F)c1C
Second: COC(=O)c1cc(Cl)ccc1-n1c(C)nnc1CCl
The melting point of the first is lower: 88 to 90 °C for the first, 123 to 124 °C for the second.

Compared with CC(C)CN(Cc1csc(C(C)C)n1)C(=O)N[C@H](C(=O)N[C@@H](Cc1ccccc1)C[C@H](O)[C@H](Cc1ccccc1)NC(=O)OCc1cncs1)C(C)C, O=C(Nc1ccccc1S(=O)(=O)c1ccccc1)N[C@@H](Cc1ccc(NC(=O)c2c(Br)cncc2Br)cc1)C(=O)O is higher in melting point: 60 to 61 °C for the first, 231 °C for the second.

First: CS(=O)c1ccc(CCCCl)cc1 (stereo unspecified)
Second: CCCCc1nn2cccc(C(=O)OC)c2c1Cc1ccc(Br)cc1
The melting point of the first is lower: 46 °C for the first, 80 to 85 °C for the second.

Compared with CCCCCCCCCCCCCCCCCCOC(=O)ON1C(=O)c2ccccc2C1=O, CC[Si](C)(C)CCCCCCCCC1=C(O)C(=O)c2ccccc2C1=O is lower in melting point: 83 to 89 °C for the first, 39 to 41 °C for the second.

First: NCCNC(=O)c1ccc(F)cc1
Second: O=[N+]([O-])c1ccc(F)c(I)c1F
The melting point of the first is higher: 57 to 60 °C for the first, 46.1 to 47.5 °C for the second.

First: CC(=O)C(=Cc1cc(O)c(O)c([N+](=O)[O-])c1)C(C)=O
Second: CN1CC(=O)NC1=NC(=O)Nc1cccc([N+](=O)[O-])c1
The melting point of the first is lower: 175 to 178 °C for the first, 182 to 188 °C for the second.

First: O=c1cc(-c2ccc([N+](=O)[O-])cc2)oc2ncccc12
Second: OCc1cn2c(n1)CN=C(c1ccccn1)c1cc(Cl)ccc1-2
The melting point of the first is higher: 261 to 263 °C for the first, 206 to 207 °C for the second.

First: N#Cc1c(N2CCCC2)c(F)cc2c(=O)c(C(=O)O)cn(C3CC3)c12
Second: Cc1cc(C)c(N2CCCc3c2[nH]n(C)c3=O)c(Cl)c1
The melting point of the first is higher: 274 to 276 °C for the first, 95.9 to 99.9 °C for the second.

Compared with Nc1nc(C[C@H](NC(=O)[C@H](Cc2ccccc2)NS(=O)(=O)N2CCOCC2)C(=O)O)cs1, Cc1nc2ccc(S(=O)(=O)n3c(COC(C)C(=O)O)cc4cc(C(F)(F)F)ccc43)cc2s1 (stereo unspecified) is lower in melting point: 149 to 151 °C for the first, 146 to 148 °C for the second.

Compared with C[Si](C)(C)CCOc1ccc(N)cn1, COC(=O)CCc1nc(I)ccc1O is higher in melting point: 59 to 61 °C for the first, 145 to 148 °C for the second.

Compared with Cc1ccc(N2C(=O)C(O)=C(C(=O)c3ccc(C(C)C)cc3)C2c2ccc(N(C)C)cc2)nn1 (stereo unspecified), Cc1c(NC(=O)CC(C)(C)C)c(C)c2c(c1-c1cccnc1)OCC2c1ccc(C(C)C)cc1 (stereo unspecified) is lower in melting point: 283 to 286 °C for the first, 142 to 144 °C for the second.

Compared with CN(C)c1ccc(C2CC3(C)C(O)CC(O)C3C3CCC4CC5(CCC4=C23)OCCO5)cc1 (stereo unspecified), CC1(C)CCCC(C)(C)N1OCc1ccccc1C(=O)ON1C(=O)CCC1=O is higher in melting point: 107 to 109 °C for the first, 145 °C for the second.

Compared with CCCCc1c[nH]c(S(C)=O)c1[N+](=O)[O-] (stereo unspecified), CCCCOc1c(C#N)c(C#N)c(OCCCC)c2ccccc12 is lower in melting point: 133 to 134 °C for the first, 69 to 70 °C for the second.

First: O=C1N(c2cc(Cl)cc(Cl)c2)C(=O)C2(Cc3ccc(Br)cc3)C[C@@H](c3ccccc3)CN12 (stereo partly specified)
Second: COc1ccc(N(C(=O)Nc2cc(C)c(S(=O)(=O)C[N+](=O)[O-])c(C)c2)c2ccc(OC)cc2)cc1
The melting point of the first is lower: 124 °C for the first, 150 to 151 °C for the second.

First: CCCNC(=S)NS(=O)(=O)c1cc2c(cc1OC)OC(C)(C)C(NC(=O)c1cc(Cl)ccc1OC)C2 (stereo unspecified)
Second: CN1Cc2c(-c3noc(CN)n3)ncn2-c2ccccc2C1=O
The melting point of the first is higher: 210 to 211 °C for the first, 192 to 195 °C for the second.
